The structures appear in SMILES notation.

This is an account of results in patent publication US20080107623A1, “Inhibitors of Hepatitis C Virus” (Bristol-Myers Squibb Company, priority 2006, published 2008).

Data set [1] concerns HCV replicon in HUH-7 cells. Briefly: HCV replicon FRET assay. To be noted: Hepatitis C virus, Huh-7; HCV replicon; which replicon assay not stated; read-out: EC50 Activity Range. It is filed as cell-based, HCV strain 1b. An excerpt: An HCV replicon whole cell system was established as described by Lohmann V, Korner F, Koch J, Herian U, Theilmann L, Bartenschlager R., Science 285(5424):110-3 (1999). This system enabled us to evaluate the effects of our HCV Protease compounds on HCV RNA replication. Briefly, using the HCV strain 1b sequence described in the Lohmann paper (Assession number: AJ238799), an HCV cDNA was synthesized by Operon Technologies, Inc. (Alameda, Calif.), and the full-length replicon was then assembled in plasmid pGem9zf(+) (Promega, Madison, Wis.) using standard molecular biology techniques. The replicon consists of (i) the HCV 5′ UTR fused to the first 12 amino acids of the capsid protein, (ii) the neomycin phosphotransferase gene (neo), (iii) the IRES from encephalomyocarditis virus (EMCV), and (iv) HCV NS3 to NS5B genes and the HCV 3′ UTR. Plasmid DNAs were linearized with ScaI and RNA transcripts were synthesized in vitro using the T7 MegaScript transcription kit (Ambion, Austin, Tex.) according to manufacturer's directions. In vitro transcripts of the cDNA were transfected into the human hepatoma cell line, HUH-7. […] Resulting cell lines were characterized for positive and negative strand RNA production and protein production over time.
The HCV replicon FRET assay was developed to monitor the inhibitory effects of compounds described in the disclosure on HCV viral replication. HUH-7 cells, constitutively expressing the HCV replicon, were grown in Dulbecco's Modified Eagle Media (DMEM) (Gibco-BRL) containing 10% Fetal calf serum (FCS) (Sigma) and 1 mg/ml G418 (Gibco-BRL). Cells were seeded the night before (1.5×10^4 cells/well) in 96-well tissue-culture sterile plates. Compound and no compound controls were prepared in DMEM containing 4% FCS, 1:100 Penicillin/Streptomysin (Gibco-BRL), 1:100 L-glutamine and 5% DMSO in the dilution plate (0.5% DMSO final concentration in the assay). Compound/DMSO mixes were added to the cells and incubated for 4 days at 37° C. After 4 days, cells were first assessed for cytotoxicity using alamar Blue (Trek Diagnotstic Systems) for a CC50 reading. The toxicity of compound (CC50) was determined by adding 1/10th volume of alamar Blue to the media incubating the cells. After 4 hours, the fluorescence signal from each well was read, with an excitation wavelength at 530 nm and an emission wavelength of 580 nm, using the Cytofluor Series 4000 (Perspective Biosystems). Plates were then rinsed thoroughly with Phosphate-Buffered Saline (PBS) (3 times 150 μl). The cells were lysed with 25 μl of a lysis assay reagent containing an HCV protease substrate (5× cell Luciferase cell culture lysis reagent (Promega #E153A) diluted to 1× with distilled water, NaCl added to 150 mM final, the FRET peptide substrate (as described for the enzyme assay above) diluted to 10 μM final from a 2 mM stock in 100% DMSO. […]. The plate was then placed into the Cytofluor 4000 instrument which had been set to 340 nm excitation/490 nm emission, automatic mode for 21 cycles and the plate read in a kinetic mode. EC50 determinations were carried out as described for the IC50 determinations.

For data set [2], the target named is T1, HCV NS3/4A protease complex, BMS strain (UniProt P27958, species not given/STRAIN_BMS).
T1 construct: said of H77 and J4L6S, not expressly of BMS; These are given for the H77 and J4L6S constructs only
T1 sequence (P27958 1027-1657, change not shown, one chain of several): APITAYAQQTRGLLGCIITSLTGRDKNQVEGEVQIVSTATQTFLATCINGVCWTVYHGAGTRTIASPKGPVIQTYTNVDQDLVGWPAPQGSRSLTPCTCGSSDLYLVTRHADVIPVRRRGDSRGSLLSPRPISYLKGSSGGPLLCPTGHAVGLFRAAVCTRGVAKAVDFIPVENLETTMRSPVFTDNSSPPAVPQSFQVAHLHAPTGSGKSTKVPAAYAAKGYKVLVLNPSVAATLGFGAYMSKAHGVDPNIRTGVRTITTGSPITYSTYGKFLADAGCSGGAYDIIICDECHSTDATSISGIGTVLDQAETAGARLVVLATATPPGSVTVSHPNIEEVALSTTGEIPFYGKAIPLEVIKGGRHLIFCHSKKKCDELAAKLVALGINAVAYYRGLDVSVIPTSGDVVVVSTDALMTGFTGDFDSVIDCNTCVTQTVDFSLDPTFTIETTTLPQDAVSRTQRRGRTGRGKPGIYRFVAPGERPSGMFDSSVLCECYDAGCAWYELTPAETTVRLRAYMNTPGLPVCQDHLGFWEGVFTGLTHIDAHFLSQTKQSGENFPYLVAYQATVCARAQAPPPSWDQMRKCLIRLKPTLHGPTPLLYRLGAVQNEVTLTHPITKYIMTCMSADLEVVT
Briefly: FRET peptide assay to monitor HCV NS3/4A proteolytic activity (BMS strain). It is filed as biochemical, HCV genotype 1a. To be noted: NS3/4A BMS strain; read-out: IC50 Activity Range. An excerpt:
HCV NS3 protease complexes, derived from the BMS strain, H77 strain or J4L6S strain, were generated, as described below. These purified recombinant proteins were generated for use in a homogeneous assay (see below) to provide an indication of how effective compounds of the present disclosure would be in inhibiting HCV NS3 proteolytic activity.
Serum from an HCV-infected patient was obtained from Dr. T. Wright, San Francisco Hospital. An engineered full-length cDNA (compliment deoxyribonucleic acid) template of the HCV genome (BMS strain) was constructed from DNA fragments obtained by reverse transcription-PCR (RT-PCR) of serum RNA (ribonucleic acid) and using primers selected on the basis of homology between other genotype 1a strains. From the determination of the entire genome sequence, a genotype 1a was assigned to the HCV isolate according to the classification of Simmonds et al. (See P Simmonds, K A Rose, S Graham, S W Chan, F McOmish, B C Dow, E A Follett, P L Yap and H Marsden, J. Clin. Microbiol., 31(6), 1493-1503 (1993)). […] The infectious clones, H77 (1a genotype) and J4L6S (1b genotype) were obtained from R. Purcell (NIH) and the sequences are published in Genbank (AAB67036, see Yanagi, M., Purcell, R. H., Emerson, S. U. and Bukh, J. Proc. Natl. Acad. Sci. U.S.A. 94(16),8738-8743 (1997); AF054247, see Yanagi, M., St Claire, M., Shapiro, M., Emerson, S. U., Purcell, R. H. and Bukh, J, Virology 244 (1), 161-172. (1998)).
NS3/4A protease complex-containing fractions were pooled and loaded on a desalting column Superdex-S200 pre-equilibrated with buffer D (25 mM HEPES, pH 7.5, 20% glycerol, 300 mM NaCl, 0.2% Triton X-100, 10 mM βME). Sample was loaded at a flow rate of 1 mL/min. NS3/4A protease complex-containing fractions were pooled and concentrated to approximately 0.5 mg/ml. The purity of the NS3/4A protease complexes, derived from the BMS, H77 and J4L6S strains, were judged to be greater than 90% by SDS-PAGE and mass spectrometry analyses. The enzyme was stored at −80° C., thawed on ice and diluted prior to use in assay buffer.
The purpose of this in vitro assay was to measure the inhibition of HCV NS3 protease complexes, derived from the BMS strain, H77 strain or J4L6S strain, as described above, by compounds of the present disclosure. This assay provides an indication of how effective compounds of the present disclosure would be in inhibiting HCV NS3 proteolytic activity.
In order to monitor HCV NS3/4A protease activity, an NS3/4A peptide substrate was used. The substrate was RET SI (Resonance Energy Transfer Depsipeptide Substrate; AnaSpec, Inc. cat #22991) (FRET peptide), described by Taliani et al. in Anal. Biochem. 240(2):60-67 (1996). […] The peptide also contains a fluorescence donor, EDANS, near one end of the peptide and an acceptor, DABCYL, near the other end. The fluorescence of the peptide is quenched by […] resonance energy transfer (RET) between the donor and the acceptor, but as the NS3 protease cleaves the peptide the products are released from RET quenching and the fluorescence of the donor becomes apparent.
The peptide substrate was incubated with one of the three recombinant NS3/4A protease complexes, in the absence or presence of a compound of the present disclosure. The inhibitory effects of a compound was determined by monitoring the formation of fluorescent reaction product in real time using a Cytofluor Series 4000. […]

One may read the EC50 as the concentration needed to bring the measured effect to its halfway point. Broadly, the IC50 is the concentration that gives 50% inhibition. As for `CC(C)(C)OC(=O)N[C@H]1CCCCC/C=C\[C@@H]2C[C@@]2(C(=O)NS(=O)(=O)C2CC2)NC(=O)[C@@H]2C[C@@H](Oc3ccc([N+](=O)[O-])cc3)CN2C1=O` [Compound 2], the half-maximal effective concentration (EC50) in data set [1] is over 1000 nM. Moreover, the IC50 in data set [2] was under 100 nM.
What is called melting point is the temperature of the solid-liquid transition. For the compound `CC(C)(C)OC(=O)N[C@H]1CCCOC/C=C\[C@@H]2C[C@@]2(C(=O)NS(=O)(=O)C2CC2)NC(=O)[C@@H]2C[C@@H](OCc3ccccc3)CN2C1=O` [Compound 5, (1S,4R,6S,14S,18R,7-cis)-18-benzyloxy-14-tert-butoxycarbonylamino-4-cyclopropanesulfonylaminocarbonyl-2,15-dioxo-3,16-diaza-10-oxatricyclo[14.3.0.0^4,6]nonadec-7-ene], the melting point fell in the range of 147 to 149 °C. Also, the concentration for a half-maximal effect (EC50) in data set [1] was over 1000 nM. The IC50 in data set [2] was under 100 nM.
As to `CC(C)(C)OC(=O)N[C@H]1CCCOC/C=C\[C@@H]2C[C@@]2(C(=O)NS(=O)(=O)C2CC2)NC(=O)[C@@H]2C[C@@H](OC(C)(C)C)CN2C1=O` [Compound 6, (1S,4R,6S,14S,18R,7-cis)-18-tert-butoxy-14-tert-butoxycarbonylamino-4-cyclopropanesulfonylaminocarbonyl-2,15-dioxo-3,16-diaza-10-oxatricyclo[14.3.0.0^4,6]nonadec-7-ene], the EC50 in data set [1] was over 1000 nM. For the same compound, in data set [2], the 50% inhibitory concentration (IC50) was 100 to 1000 nM.
Taken in the same sequence, the figures for `CC(C)(C)OC(=O)N[C@H]1CCCCC/C=C\[C@@H]2C[C@@]2(C(=O)NS(=O)(=O)C2CC2)NC(=O)[C@@H]2C[C@@H](Oc3ccccn3)CN2C1=O` [Compound 1] were 100 to 1000 nM and under 100 nM.
